pIC50: −log10 of the molar value.
What was measured:
HDAC4 = molecular target: T1, HDAC4 (Homo sapiens, UniProt P56524); assay: HDAC enzyme assay, in vitro biochemical; conditions: maximum concentration tested of 20 μM
T1 construct: purchased BPS Biosciences
Experimental: (§1) In vitro biochemical assays were performed as described previously. Specifically, compounds were dissolved and diluted in assay buffer (50 mM HEPES, pH 7.4, 100 mM KCl, 0.001% Tween-20, 0.05% BSA, and 20 μM Tris (2-carboxyethyl) phosphine) to 6-fold the final concentration. […] The amount of substrate (acetyl-lysine tripeptide) used for each enzyme was equal to the Michaelis constant (Km), as determined by a titration curve. Substrate was diluted in assay buffer to 6-fold of the final concentration with 0.3 μM sequencing grade trypsin (Sigma-Aldrich). The substrate/trypsin mix was added to the enzyme/compound mix and the plate was shaken for 5 seconds and then placed into a SpectraMax M5 microtiter (Molecular Devices) plate reader. The enzymatic reaction was monitored over 30 minutes for release of […] after deacetylation of the lysine side chain in the peptide substrate, and the linear rate of the reaction was calculated.
(§2) biochemical assay for HDAC4, HDAC5, HDAC6, HDAC7, HDAC8, HDAC9 inhibition by ACY-1035.
(§3) (1 picture or pasted object on this page, not shown here)

HDAC7 = molecular target: T2, HDAC7 (Homo sapiens, UniProt Q8WUI4); assay: HDAC enzyme assay, in vitro biochemical; conditions: maximum concentration tested of 20 μM
T2 construct: purchased BPS Biosciences
T2 sequence (Q8WUI4 1-952): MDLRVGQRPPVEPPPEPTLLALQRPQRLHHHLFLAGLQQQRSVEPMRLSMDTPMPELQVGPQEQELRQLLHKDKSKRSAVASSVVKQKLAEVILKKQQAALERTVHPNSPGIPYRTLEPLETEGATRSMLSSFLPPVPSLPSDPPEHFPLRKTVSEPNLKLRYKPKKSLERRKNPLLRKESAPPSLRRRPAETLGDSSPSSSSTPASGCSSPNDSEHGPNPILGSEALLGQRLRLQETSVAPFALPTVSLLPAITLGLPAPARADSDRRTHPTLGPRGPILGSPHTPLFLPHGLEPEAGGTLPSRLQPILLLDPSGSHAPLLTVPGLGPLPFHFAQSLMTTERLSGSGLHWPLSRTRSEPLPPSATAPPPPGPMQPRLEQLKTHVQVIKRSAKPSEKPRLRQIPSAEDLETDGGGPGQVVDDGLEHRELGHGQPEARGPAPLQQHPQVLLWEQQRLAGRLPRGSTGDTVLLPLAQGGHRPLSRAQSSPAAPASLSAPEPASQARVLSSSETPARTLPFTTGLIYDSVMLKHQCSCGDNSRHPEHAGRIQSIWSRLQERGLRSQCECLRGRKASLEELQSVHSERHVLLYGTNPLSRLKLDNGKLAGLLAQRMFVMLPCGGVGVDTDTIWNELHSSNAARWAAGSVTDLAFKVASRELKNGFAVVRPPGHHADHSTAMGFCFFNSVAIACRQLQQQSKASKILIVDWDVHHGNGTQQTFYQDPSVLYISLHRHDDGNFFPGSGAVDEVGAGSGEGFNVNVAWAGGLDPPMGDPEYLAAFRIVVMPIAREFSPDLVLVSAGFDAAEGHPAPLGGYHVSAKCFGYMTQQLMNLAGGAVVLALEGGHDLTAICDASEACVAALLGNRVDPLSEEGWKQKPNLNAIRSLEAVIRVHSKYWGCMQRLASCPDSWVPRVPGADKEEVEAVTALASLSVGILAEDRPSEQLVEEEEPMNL
Experimental: as §1, §2, §3

HDAC8 = molecular target: T3, HDAC8 (Homo sapiens, UniProt Q9BY41); assay: HDAC enzyme assay, in vitro biochemical; conditions: maximum concentration tested of 20 μM
T3 construct: purchased BPS Biosciences
T3 sequence (Q9BY41 1-377): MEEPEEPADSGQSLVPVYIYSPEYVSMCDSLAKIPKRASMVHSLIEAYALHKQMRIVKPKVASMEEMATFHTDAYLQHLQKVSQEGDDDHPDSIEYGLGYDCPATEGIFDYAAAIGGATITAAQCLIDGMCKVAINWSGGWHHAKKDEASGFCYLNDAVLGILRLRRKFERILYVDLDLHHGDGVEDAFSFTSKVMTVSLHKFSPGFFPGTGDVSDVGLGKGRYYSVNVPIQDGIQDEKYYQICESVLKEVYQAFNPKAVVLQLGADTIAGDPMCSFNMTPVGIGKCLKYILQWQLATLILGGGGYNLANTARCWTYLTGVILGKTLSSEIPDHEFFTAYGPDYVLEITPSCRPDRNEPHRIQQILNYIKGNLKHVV
Experimental: as §1, §2, §3

MV-4-11 and HL-60 cells = assay: Flow cytometry, surface level of CD11b (differentiation); type: cell-based, human; conditions: single agent, 72 hours
Experimental: All compounds and/or solvent DMSO were added concurrently at the indicated doses. Flow cytometry was performed to measure surface level of CD11b, cell cycle distribution, and induction of apoptosis. CD11b and apoptosis were analyzed on a FC500 flow cytometer ([…]) and cell cycle profiled on an Attune NxT (Life Technologies).
The frequency of CD11b positive cells out of total viable cells identified by forward and side scatter profile was quantified.

Kasumi-1 cells = assay: Cell viability assay (CellTiter-Glo); conditions: read-out: IC50 cell viability Kasumi-1; 72 hours
Experimental: MV-4-11, Kasumi-1, and HL-60 AML cell lines were all obtained from ATCC. MOLM-13 and NB-4 cell lines were obtained from DSMZ. […] The identity of each cell line was validated and documented by the suppliers. All experiments were performed with cells maintained at low passage numbers.
Compounds and/or solvent dimethyl sulfoxide (DMSO) were added at the same time using an HP D300 digital dispenser (Hewlett Packard) in triplicate or quadruplicate and incubated for 72 hours at 37°C. Viability was measured by adding 25 μL CellTiter-Glo (Promega), incubating for 10 minutes, and measuring luminescence on a SpectraMax (Molecular Devices). […] CI < 1 indicates synergism, CI = 1 indicates additivity, and CI > 1 indicates antagonism.

T1 sequence (P56524 whole entry): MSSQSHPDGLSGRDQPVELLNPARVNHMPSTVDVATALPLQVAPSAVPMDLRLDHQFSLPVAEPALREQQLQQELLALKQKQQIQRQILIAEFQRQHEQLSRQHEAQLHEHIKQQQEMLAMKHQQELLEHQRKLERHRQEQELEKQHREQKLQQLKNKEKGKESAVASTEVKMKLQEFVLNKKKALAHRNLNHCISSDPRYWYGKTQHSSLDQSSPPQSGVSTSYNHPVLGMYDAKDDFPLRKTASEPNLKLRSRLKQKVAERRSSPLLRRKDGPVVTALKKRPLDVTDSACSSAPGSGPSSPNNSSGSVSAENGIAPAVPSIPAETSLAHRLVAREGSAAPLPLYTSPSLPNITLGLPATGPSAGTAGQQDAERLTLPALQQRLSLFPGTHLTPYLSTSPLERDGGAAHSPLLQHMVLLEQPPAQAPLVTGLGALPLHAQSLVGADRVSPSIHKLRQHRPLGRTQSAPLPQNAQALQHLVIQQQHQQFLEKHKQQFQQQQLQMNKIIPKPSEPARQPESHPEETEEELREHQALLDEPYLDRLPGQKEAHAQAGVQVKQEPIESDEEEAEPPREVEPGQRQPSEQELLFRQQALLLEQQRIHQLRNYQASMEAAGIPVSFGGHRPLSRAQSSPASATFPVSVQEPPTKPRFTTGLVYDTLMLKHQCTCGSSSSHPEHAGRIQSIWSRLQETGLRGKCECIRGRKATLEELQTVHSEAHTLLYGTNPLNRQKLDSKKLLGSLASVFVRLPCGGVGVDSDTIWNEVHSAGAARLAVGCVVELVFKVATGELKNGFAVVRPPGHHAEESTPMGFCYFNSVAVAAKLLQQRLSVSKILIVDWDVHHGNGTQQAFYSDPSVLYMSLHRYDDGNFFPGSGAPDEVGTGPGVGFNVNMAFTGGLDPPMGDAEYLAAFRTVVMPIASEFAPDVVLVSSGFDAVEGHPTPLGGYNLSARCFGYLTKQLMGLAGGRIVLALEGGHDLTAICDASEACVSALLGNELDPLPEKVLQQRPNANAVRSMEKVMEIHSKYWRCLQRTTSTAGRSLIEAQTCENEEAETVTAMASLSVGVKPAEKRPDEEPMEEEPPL

Nc1ccc(-c2cccs2)cc1NC(=O)c1ccc2c(c1)cc(C1CC1)n2CCN1CCOCC1 [ACY-1035]
inhibition of HDAC4 (HDAC4): did not inhibit
inhibition of HDAC7 (HDAC7): did not inhibit
inhibition of HDAC8 (HDAC8): did not inhibit
differentiation, surface expression of CD11b (MV-4-11 and HL-60 cells): dose-dependent induction of differentiation
pIC50 (Kasumi-1 cells): 5.59
